Measurements as given in patent US20220046925A1, “METHOD OF CONTROLLING PESTS BY SEED TREATMENT APPLICATION OF A MESOIONIC COMPOUND OR MIXTURE THEREOF” (BASF SE, priority 2018, published 2022).
Like-named read-outs stand apart in the source and are kept apart here. Marks after values point to notes of the source that are not given here.

Assays:
Format in all cases: in vivo
Elasmopalpus sp = assay: Soybean seed treatment against lesser corn stalkborer (cage)
Procedure: Soybean seed treatment: Soybean seeds were treated with Compound I-R-1. The treated seeds were sown inside an enclosed cage, in two lines at 29 seeds/cage. Thirty-five 3rd instar larvae of Elasmopalpus sp were introduced into each cage at six days after sowing. The number of dead and live plants were counted periodically.

Rhopalosiphum padi = assay: Barley seed treatment against bird cherry oat aphid; settings: 100 g ai/100 kg seed, first true leaf stage
Procedure: Barley seed treatment: Technical material was dissolved in DMSO. Twenty barely seeds were treated with a vortex method and planted in a pot (2×2 inch) filled with Rediearth soil. One seed was planted per pot and the pots were arranged in a completely randomized design, held in the greenhouse, and top-watered and fertilized daily. Four seedlings were taken from each cotyledon & true leaf treatment samples. DMSO solvent blank were used as positive and negative treatments, respectively. The true leaf stage was infested 14 days after planting (DAP). Ten bird cherry-oat aphids of mixed stages were transferred individually to each plant with a paint brush. Six replicates were set up for each treatment. After infestation, plants were kept on a light cart at room temperature and bottom watered until evaluated. The number of live aphids at 4 days after infestation (4DAI) was recorded, and means were calculated for each treatment. Percent control was calculated as the percent reduction in live aphids relative to the solvent blank.

[1] = system: Leptinotarsa decimlineata; assay: Potato seed piece treatment against Colorado potato beetle
Procedure: 8. Potato—Colorado Potato Beetle (Leptinotarsa decimlineata) Potato seed piece treatment: Seed potatoes were treated by spraying. After application, potatoes were allowed to dry prior to planting. The plots were laid out in 6-meter rows with 4 replications. Feeding damage assessments were taken at 42 and 50 days after planting.

[2] = system: Frankliniella occidentalis (FRANOC); assay: Cotton seed treatment with mixtures against Frankliniella occidentalis (Colby synergy); settings: 7DAI
Source text: (§1) When the observed combined control effect is greater than the expected combined control effect (E), then the combined effect is synergistic.
(§2) Sub-lethal rates were predetermined by rate rundown. Formulations were combined and diluted in water and applied to cotton seeds which were allowed to dry. Seeds were then planted and grown in a greenhouse. At the cotyledon stage, western flower thrips (Frankliniella occidentalis) adults were infested onto each plant and held under laboratory conditions. Replication was 5×. Seven and 14 days after infestation, percent damage was visually assessed, and means were calculated for each treatment. Percent control was calculated as the percent reduction in live aphids relative to the solvent blank (Sun-Shepard method).

Frankliniella fusca [3] = assay: Cotton seed treatment against tobacco thrips (field)
Procedure: Cotton seed treatment: Field studies were carried out against tobacco thrips using cotton seeds treated with 0.375 mg ai/seed of Compound I-R-1. Treated Seeds were sown in 30 sq m plots. There were 4 replications for each treatment. Feeding damage was assessed at 5 and 7 days after planting (DAP).

Myzus persicae = assay: Sugarbeet seed treatment against green peach aphid
Procedure: Sugarbeet seed treatment: Seeds were treated in according to desired rates. Seeds were planted (one per pot) at a depth of 1.5 cm in 3×3 in (58.0644 cm2) pots that were filled with RediEarth soil and moistened prior to planting. Pots were held in a completely randomized design in the greenhouse and automatically top watered and fertilized [NPK 16-4-20-3(Ca)-1(Mg)] daily (4 min, 4× a day) until infestation. A set of plants was infested 7, 14, 21 and 28 days after treatment (DAT). Thirty aphids were transferred individually to each plant with a paint brush. After infestation, plants were kept on a light cart at room temperature with continuous light and bottom watered until evaluation. Six days after infestation (DAI), the number of live aphids was recorded, and means were calculated for each treatment. Percent control was calculated as the percent reduction in live aphids relative to the solvent blank.

[4] = system: Rhopalosiphum padi (RHOPPA); assay: Barley seed treatment with mixtures against Rhopalosiphum padi (Colby synergy); settings: cotyledon stage, 4 days after infestation
Source text: as §1
as §2, with “barley” for “cotton”, “bird cherry-oat aphids (Rhopalosiphum padi) of mixed stages” for “western flower thrips (Frankliniella occidentalis) adults”, “6×. Four” for “5×. Seven and 14”, “the number of live aphids on each plant” for “percent damage”, “recorded,” for “visually assessed,”

Dichelops melacanthus = assay: Corn seed treatment against green belly stink bug (cage); settings: for mortality at 30 g/ha: Dichelops melacanthus
Procedure: Corn seed treatment: Corn seeds were treated with Compound I-R-1. The treated seeds were sown inside an enclosed cage, at 16 seeds/cage. Twenty-four stinkbugs, were introduced into each cage. The number of dead and live stinkbugs were counted periodically.

Frankliniella fusca [5] = assay: Peanut seed treatment against tobacco thrips (field)
Procedure: Peanut seed treatment: Field trials were laid out. Treated peanut seeds were sown in 8 sq m plots using 4 replications. Feeding damage was assessed at 28 and 35 days after treatment.

Phyllotreta striolata = assay: Canola seed treatment against striped flea beetle; settings: rate 400 (unit not given), 300 g ai/L formulation, cotyledon stage
Procedure: Canola seed treatment: Formulation was diluted in water to make appropriate concentration according to needs. Canola seeds with pre-coating inert ingredients were treated with diluted solution by vortex methods. Treated seeds were dried in ventilating chemical hood. After dry, three seeds were planted per pot (2×2 inch) at a depth of 1 cm, which were filled with Patio sand and watered prior to treatment and planting. The pots were arranged in a completely randomized design, kept in the greenhouse, and automatically top-watered and fertilized daily (NPK 16-4-20-3(Ca)-1(Mg)). At the cotyledon stage [˜7 days after treatment (DAT)], plants were thinned to 1 plant per pot. One set of plants was infested at the cotyledon stage and another set at the first true-leaf stage. Both cotyledons of a single plant were excised, and true leaves were sampled using a ⅝″ (1.59-cm) diameter leaf disc. Leaf samples were placed on a piece of 47-mm filter paper moistened with 0.225 mL distilled water in a 50-mm Petri dish. Five flea beetles were then infested into the petri dish. The dishes were held in an incubator at 27° C., 60% RH, and a 16L:8D light cycle. Five days after infestation (DAI), the numbers of live, moribund, and dead flea beetles were recorded, as well as % feeding damage (via visual estimate). […] Percent mortality was calculated for each treatment, with moribund insects classified as alive.

C[n+]1c([O-])c(-c2ccccc2)c(=O)n2c1SC[C@@H]2c1cnc(Cl)s1 (single isomer, unassigned) [Compound I-R-1]
efficacy against Elasmopalpus sp. in terms of plant protection (in words) (Elasmopalpus sp): good efficacy
Number of dead plants/plot, A03 (Elasmopalpus sp; 50 g ai/ha, assessment A03): 1.50 a
Number of dead plants/plot, A07 (Elasmopalpus sp; 50 g ai/ha, assessment A07): 4.50 ab
Number of dead plants/plot, A14 (Elasmopalpus sp; 50 g ai/ha, assessment A14): 5.25 b
Number of dead plants/plot, A21 (Elasmopalpus sp; 50 g ai/ha, assessment A21): 6.75 b
Mean % Population Reduction (18 DAP, 4DAI) (Rhopalosiphum padi): ≥90%
efficacy against L. decimlineata regarding reduction in feeding damage (in words) [1]: good efficacy
Feeding damage, A42 ([1]; 400 g ai/ha, 42 days after planting): 3.0 b
Feeding damage, A50 ([1]; 400 g ai/ha, 50 days after planting): 11.3 bc
% activity (feeding damage reduction), solo application ([2]; use rate 0.375 (head: g ai/100 kg seeds)): 19%
efficacy against F. fusca in terms of reduction in feeding damage (in words) (Frankliniella fusca [3]): excellent efficacy
Feeding damage (%), 5 DAP (Frankliniella fusca [3]; 0.375 mg ai/seed, field, 5 DAP): 6.0 b %
Feeding damage (%), 7 DAP (Frankliniella fusca [3]; 0.375 mg ai/seed, field, 7 DAP): 12.5 c %
Mean % Population Reduction Relative to SB @ 6DAI, 7 DAP (Myzus persicae; sugar beet seed treatment, 80 g ai/1 kg seed, infested 7 DAP, 6DAI): 100%
Mean % Population Reduction Relative to SB @ 6DAI, 14 DAP (Myzus persicae; sugar beet seed treatment, 80 g ai/1 kg seed, infested 14 DAP, 6DAI): ≥90%
Mean % Population Reduction Relative to SB @ 6DAI, 21 DAP (Myzus persicae; sugar beet seed treatment, 80 g ai/1 kg seed, infested 21 DAP, 6DAI): ≥90%
Mean % Population Reduction Relative to SB @ 6DAI, 28 DAP (Myzus persicae; sugar beet seed treatment, 80 g ai/1 kg seed, infested 28 DAP, 6DAI): ≥90%
activity against green peach aphid by sugarbeet seed treatment (in words) (Myzus persicae; sugarbeet seed treatment): excellent activity
activity as far as 4 weeks after plant (in words) (Myzus persicae; sugarbeet seed treatment, 4 weeks after plant): excellent activity
% activity (population reduction), solo application ([4]; 5 g ai/100 kg seeds): 46%
% activity (population reduction), solo application ([4]; 14 g ai/100 kg seeds): 59%
mortality at 30 g/ha (Dichelops melacanthus; read-out: Percentage mortality (%), A01): 5.4%
mortality at 30 g/ha (Dichelops melacanthus; read-out: Percentage mortality (%), A03): 24.6%
mortality at 30 g/ha (Dichelops melacanthus; read-out: Percentage mortality (%), A07): 13%
mortality at 30 g/ha (Dichelops melacanthus; read-out: Percentage mortality (%), A14): 35.3%
mortality at 30 g/ha (Dichelops melacanthus; read-out: Percentage mortality (%), A21): 61.5%
efficacy against green belly stink bug (in words) (Dichelops melacanthus; corn seed treatment): good efficacy
efficacy against F. fusca in terms of reduction in feeding damage (in words) (Frankliniella fusca [5]): good efficacy
Feeding damage (%), A28 (Frankliniella fusca [5]; 0.68 mg ai/seed, field, 28 days after treatment): 13.0 b %
Feeding damage (%), A35 (Frankliniella fusca [5]; 0.68 mg ai/seed, field, 35 days after treatment): 13.5 b %
Mean % feeding damage (5DAI, 13DAP) (Phyllotreta striolata; 5DAI, 13DAP): 19^b %
Mean % Feeding Damage Reduction Relative to SB (Phyllotreta striolata; relative to solvent blank): 58%

CCN(C(=O)c1cnn(C(C)C(C)C)c1C)c1ccnnc1 (stereo not drawn) [Dimpropyridaz, 1-(1,2-dimethylpropyl)-N-ethyl-5-methyl-N-pyridazin-4-yl-pyrazole-4-carboxamide]
% activity (population reduction), solo application ([4]; 18 g ai/100 kg seeds): 5%
% activity (population reduction), solo application ([4]; 46 g ai/100 kg seeds): 11%

O=C1C=C(N(Cc2ccc(Cl)nc2)CC(F)F)CO1 [Flupyradifurone]
% activity (population reduction), solo application ([4]; 21 g ai/100 kg seeds): 36%

CN1COCN(Cc2cnc(Cl)s2)/C1=N\[N+](=O)[O-] [thiamethoxam, reference compound]
% activity (feeding damage reduction), solo application ([2]; use rate 0.300 (head: g ai/100 kg seeds)): 37%
